The values below come from US20220403337A1, “CELL REPROGRAMMING METHOD” (priority 2019, published 2022).

Common to all, as to format: cell-based
The subject of data set [1] is Nanog, Klf4, Oct4, and Sox2. Briefly: PCR for expression of undifferentiated markers. The following applies: human skin fibroblasts processed with 2-mercaptoethanol and reprogrammed (FIG. 4 lane 3). As to the method:
Whether gene expression had been generated was examined on Nanog, Klf4, Oct4, and Sox2 as the undifferentiated markers. The RNA was collected from the cells using a RNeasy Mini Kit (QIAGEN). PCR was performed on the above-described various kinds of undifferentiated markers using the method described in Cell. 2007 Nov 30; 131(5): 861-72.

The subject of data set [2] is Normal human skin fibroblasts (adult). Nature of the data set: Extinction of cells at high 2-mercaptoethanol concentration. The following applies: D-MEM medium. As to the method:
(§1) Normal human skin fibroblasts (adult) (Takara Bio) were seeded to a spheroid plate, and after 24 to 48 hours, medium exchange was performed on a D-MEM (Low Glucose) medium to which 2-mercaptoethanol diluted by 1/100000 (142 μM) was added. Then, after three to four days, medium exchange was performed again on the same D-MEM medium.
(§2) The processes similar to those of the above-described items 1 and 2 were performed to examine the concentration of 2-mercaptoethanol. Specifically, except that the concentration of 2-mercaptoethanol was set to 0.142 μM, 1.42 μM, 14.2 μM, 142 μM, 1.42 mM, 14.2 mM, and 142 mM, the operations same as those in the items 1 and 2 were performed.

Data set [3] has the same test system. Briefly: Reprogramming of human skin fibroblasts: change in form, spheroid formation, alkaline phosphatase stain. The procedure:
as §1
Then, after three or four days, the medium exchange was performed again on the same medium.
The alkaline phosphatase reaction of the cells finally obtained by the above-described culture was examined. The stain of alkaline phosphatase was performed in accordance with the operating manual attached to the kit using Alkaline Phosphatase Live Stain (Invitrogen). Specifically, the cells were cultured for 30 minutes in a medium in which a staining fluid (AP Live Stain) attached to the kit diluted by 500 times was added in the D-MEM. Afterwards, the medium was exchanged and cleaning was performed for five minutes x two times.
as §2
Similarly to the item 1, after performing the culture in the D-MEM medium containing the 2-mercaptoethanol (142 μM), LIF (wako, used by 1:1000), ACTH (wako, 10 μmol/L), bFGF (wako, 0.34 nmol/L), and AR-A014418 (Merck, 3 μM) were added in this medium and further the cells were cultured for one week. As a result, both of spheroid formation of the cells and the alkaline phosphatase stain were observed.
In the item 1, when (i) only the LIF, (ii) only the ACTH, or (iii) only the LIF and the ACTH were added to the ADSC-4 medium for culture, spheroid formation of the cells and the alkaline phosphatase stain were observed under any conditions.

Data set [4] relates to normal human skin fibroblast (adult). Nature of the data set: Effect by CCL2 added to LIF on reprogramming (cell form). As to the method: The CCL2 was added to the LIF and an influence given to reprogramming was verified. In accordance with Working Example 1, while medium exchange was performed on a normal human skin fibroblast (adult) (the Takara Bio) in a D-MEM medium containing 2-mercaptoethanol (142 μM) for three to four days, culture was performed for seven days. Next, culture was performed for additional seven days in a medium in which (i) only LIF, (ii) LIF+CCL2 (10 ng/mL), or (iii) LIF+CCL2 (100 ng/mL) were added to an ADSC-4 medium. Note that the LIF was used by 1:1000.

[5] abbreviates: culture only in D-MEM containing 2-mercaptoethanol (142 μM), no step (b).
Where [6] appears, read: after 2-mercaptoethanol (142 μM) step, only the named factor(s) added to ADSC-4 medium.

Bounds are passed on as bounds.

Consider `OCCS` [2-mercaptoethanol], for which, in data set [1], the “expression of undifferentiated markers Nanog, Klf4, Oct4, and Sox2 (PCR bands around targeted sizes)” value is listed as “bands were able to be confirmed”. In addition, the “2-mercaptoethanol concentration at which extinction of the cells was observed” value in data set [2] is reported as at least 14.2 mM. For the same compound, in data set [3] (142 μM in D-MEM (Low Glucose), cultured for one week), the “change in form of the cells” value was “the change in form of the cells was confirmed”. Further, the “spheroid formation of the cells and alkaline phosphatase stain” value in data set [3] (142 μM in D-MEM, then LIF, ACTH, bFGF, AR-A014418 added in this same medium, one further week) is reported as “observed”; in data set [3] (2-mercaptoethanol at 0.142 μM to 1.42 mM in step (a), then ADSC-4 with LIF, ACTH, bFGF, AR-A014418) it was “observed”. For the same compound, the spheroid formation result in data set [3] (142 μM one week, then one week in ADSC-4 with LIF 1:1000, ACTH 10 μmol/L, bFGF 0.34 nmol/L, AR-A014418 3 μM) was “forming spheroids”. The “alkaline phosphatase stain (AP Live Stain, fluorescence microscope)” value in data set [3] (142 μM one week, then one week in ADSC-4 with LIF, ACTH, bFGF, AR-A014418) is recorded as “the stain was observed”. Moreover, the alkaline phosphatase stain entry in data set [3] (2-mercaptoethanol at 14.2 μM to 1.42 mM in step (a), then ADSC-4 with LIF, ACTH, bFGF, AR-A014418) is given as “especially strongly observed”; in data set [3] (setting [5]), “weak”. The “spheroid formation of the cells” value in data set [3] (setting [5]) was “observed”.
On to “ACTH: adrenocorticotropic hormone (wako, 10 μmol/L) (SYSMEHFRWGKPVGKKRRPVKVYPNGAEDESAEAFPLEF; Corticotropin; UniProt P01189 138-176, looked up)”, for which the “spheroid formation of the cells and alkaline phosphatase stain” value in data set [3] (setting [6]) is “observed”.
Regarding “CCL2: chemokine (C-C motif) ligand 2, OCT3/4 transcription stimulating factor”, the “cell aggregation on addition of CCL2 to LIF” value in data set [4] (contours between cells clarified, divergence of cell adhesion recognized (FIG. 13D)) is “remarkable”.
As to “LIF: leukemia inhibiting factor, OCT3/4 transcription stimulating factor (wako, used by 1:1000)”, the “change in form of the cells” value in data set [4] ((i) only LIF 1:1000 in ADSC-4, seven days, after 2-mercaptoethanol (142 μM) seven days) was “confirmed”. Moreover, in data set [3] (setting [6]), the “alkaline phosphatase stain (strength)” value is given as “especially observed strongly”; the “spheroid formation of the cells and alkaline phosphatase stain” value is reported as “observed”.
